From US10052368B2, “Pegylated tissue kallikrein, and preparation method therefor and uses thereof” (ZONHON BIOPHARMA INSTITUTE INC., priority 2013, dated 2018)
Entries after “also recorded” stand apart in the source; their conditions may differ.

Key:
[1] = Pharmacokinetics by 125I isotope labelling tracer method; type: in vivo; conditions: rats, 1.5 U/kg via vena caudalis; for T½β: 2-compartment model
Method: The in vivo blood drug concentrations of kallikrein before and after the PEG modification were studied employing a ^125I isotope labelling tracer method in this example. In order to reduce the absorption of the labelled drug by the thyroid gland of rats, 1 ml of a 1% KI (Sinopharm Group) solution was intraperitoneally injected about 8 hours before the experiment, to saturate the thyroid gland of the rats. The rats were randomly divided into 3 groups, i.e., a conjugate 3 group, a kallikrein group, and a urinary kallikrein group, 8 in each group, half male and half female (purchased from Experimental Animal Center of Zhejiang Province).
A particular operation method is as follows:
1. Hydroxy on the amino acid residue phenyl ring in a protein molecule is substituted with radioiodine, to obtain the above protein with ^125I having a radioactive tracing effect.
2. Numbering is performed on the rats using picric acid according to the numbering rule, and weighing is performed. After fixing with a rat fixer, administration is performed by injection through vena caudalis (1.5 U/kg). The rat is let go immediately after the dosage, and allowed to move around, drink water, and eat food freely.
3. 0.2 mL of blood is taken from eye sockets 1 min, 3 min, 10 min, 20 min, 40 min, 60 min, 2 h, 4 h, 8 h, 12 h, 24 h, 48 h, 72 h, 96 h, and 120 h respectively after the dosage, and EDTA is added therein for anticoagulation.
4. The rat plasma is subjected to centrifugal separation at 5000 rpm for 3 min, and determined for plasma radioactivity using a gamma counter (Anke Zhongjia, GC-911), for 1 min.
5. Plasma is recovered after radioactivity determination, and undegraded proteinogenous drugs are separated by HPLC (Shimadzu LC-20AT).

[2] = In vitro activity of PEG-KLK1 conjugates (BAEE degradation, absorbance change); type: biochemical; conditions: BAEE substrate, versus original unmodified protein
Excerpt: N-benzoyl-L arginine ethyl ester hydrochloride (BAEE, purchased from sigma Inc.) may be degraded by Kallikrein, and the activity of kininogenase may be determined according to the change in the absorbance before and after the enzymatic reaction, see Pharmacopoeia of People's Republic of China, pages 850-851, Section 2, 2010 version for a particular determination method. Samples to be detected were, respectively, SC-PEG5000-KLK1 (conjugate 1), Y-PALD-20K-KLK1 (conjugate 2), Y-PALD-30K-KLK1 (conjugate 3), and Y-PALD-40K-KLK1 (conjugate 4) from Preparation Example 1, and the original unmodified protein.
The recombinant expressed low-molecular weight human kallikrein (hK1K1) from Example 10 was modified with a Y-PALD-30K modifier, and after the modification, a mono-modified product (Y-PALD-30K-hK1K1) was prepared according to the method described in Example 1. […] According to the experimental method in Example 2, the activity of human kallikrein (hK1K1) before and after the modification was determined.
The recombinant human kallikrein expressed in CHO cells prepared in Example 12 was modified with a Y-PALD-30K modifier, and after the modification, a mono-modified product (Y-PALD-30K-rhK1K1) was prepared according to the method described in Example 1. […] According to the experimental method in Example 2, the activity of human kallikrein before and after the modification was determined.

[3] = tested on: cerebral ischemia reperfusion model of middle cerebral artery obstruction (MCAO); test: Cerebral ischemia reperfusion model of middle cerebral artery obstruction (MCAO); type: in vivo; conditions: SD rats, 3 μg/kg once via vena caudalis; for Cerebral infarction area (%) / Score of neurologic deficit symptom: 24 h after reperfusion; for Cerebral infarction area (%): TTC staining; for Score of neurologic deficit symptom: improved Bederson 5-point system
Excerpt: A cerebral ischemia reperfusion model of middle cerebral artery obstruction (MCAO) was established by thread embolizing the internal carotid artery of SD rats (purchased from Shanghai Sippr bk Laboratory Animal Co. LTD.) A positive control 1 group (urinary kallikrein, Guangdong Tianpu Biochemical Pharmaceutical Co., LTD.), a positive control 2 group (tPA, Shanghai Boehringer Ingelheim Pharmaceuticals Co., LTD), a model control group (PBS), a sham group, a kallikrein group (from Changzhou Qianhong Biochemical Pharmaceutical Co., LTD.), a conjugate 1 group, a conjugate 2 group, a conjugate 3 group, and a conjugate 4 group were arranged respectively. Administration by injection through vena caudalis was performed once at 3 μg/kg (calculated according to the protein amount) immediately after the cerebral ischemia reperfusion. Neurologic deficit symptoms were observed 24 h after the reperfusion, and the cerebral infarction area was determined. In the model group, an equal volume of PBS was injected through vena caudalis into the rat. In the sham group, only blood vessels were separated, no embolizing thread was inserted, and an equal volume of PBS was injected through vena caudalis into the rats. Neurologic deficit symptoms were evaluated employing an improved Bederson 5-point system method. Neurologic deficit symptoms of the rats after brain trauma were evaluated by a single-blind method, i.e., the animals were marked according to groups by designers of the experiment, and scores of the neurologic deficit symptoms were given by experimenters blind to the grouping situation. The cerebral infarction area was calculated employing the following method. Cerebrums of the SD rats were stained with TTC (2,3,5-triphenyltetrazolium chloride) and then the photographs were subjected to statistics using an image analysis software, and the percentage of cerebral infarction area was calculated according to the following formula: % cerebral infarction area=100×(total ischemic area/total area on the right side)

[4] = tested on: anti-kallikrein antibody level in serum; parameters: species or system mice; conditions: mouse, in vivo, 1 mg/kg
Method: Relative immunogenicity of different PEG-KLK1 conjugates to mice was determined in this example, and compared with the original protein. The experiment was divided into a conjugate 2 group, a conjugate 3 group, a urinary kallikrein group and an original protein group. 1 mg/kg (calculated according to the protein amount) of the above protein was injected through vena caudalis into the mice at a frequency of twice a week, for 4 continuous weeks. Blood was taken from eye sockets 1 week after administration. The anti-kallikrein antibody level in serum was determined by […].

[5] = tested on: db/db mice as animal models for diabetic nephropathy; test: Diabetic nephropathy model in db/db mice; type: in vivo; conditions: for 24-h urea nitrogen after administration, compared with the model group / 24-h urine creatinine after administration, compared with the model group / 24-h urine protein after administration, compared with the model group / 24-h urine volume after administration, compared with the model group: 2 μg/kg via vena caudalis, 2 months, original protein once a week, conjugate 3 once every 2 weeks
Method: db/db mice (purchased from Shanghai Slaccas Experimental Animal Co., LTD., grade SPF, 8-week aged, male, with a conformity certification No. of 2007000552656) were employed as animal models for diabetic nephropathy. A model group, a kallikrein (purchased from Changzhou Qianhong Biochemical Pharmaceutical Co., LTD.) original protein group and a conjugate 3 group were provided respectively. The administered dose was 2 μg/kg (calculated according to the protein amount), through vena caudalis, where the model group and the original protein group were dosed once a week, and the conjugate 3 group was dosed once every 2 weeks, for 2 continuous months before detection of urine volume, urine protein, urea nitrogen and urine creatinine. (Urine protein detection kits, urine creatinine detection kits, and urea nitrogen detection kits were all purchased from Nanjing Jiaticheng Bioengineering Co., LTD.)

[6] = Thermostability: activity after standing in a water bath at 65° C.; type: physicochemical; conditions: for thermostability in comparison with the original protein: 65° C. water bath, 0-30 min
Method: In order to confirm whether the PEG modification can increase the stability of kallikrein, the activity of the conjugates 1 and 3 and the original protein after standing for a period of time in a water bath at 65° C. was detected respectively in this example. The method specifically included the following steps. The conjugates 1 and 3 and the unmodified kallikrein dissolved in a PBS buffer at a protein concentration of 1 mg/mL were stood in a water bath at 65° C., sampled at 0 min, 2.5 min, 5 min, 7.5 min, 10 min, 20 min, 25 min, and 30 min respectively, and stored in freezer at […] for later use. After sampling, the biological activity was detected by employing the method (i.e., the method described in appendix IX F in Pharmacopoeia of People's Republic of China, Section 3, 2005 version).

Substance | AUC [1] [ng·h/mL] | CL [1] [mL/min/kg] | V [1] [L/kg] | T½β [1] [h] | activity retained, of the activity of the original protein [2] [%] | amelioration of cerebral infarction status of the model animals (in words) [3] | Cerebral infarction area (%) [3] [%] | Score of neurologic deficit symptom [3] | antibody titers on mice compared with kallikrein from porcine pancreas and urinary kallikrein [4] | relative immunogenicity to mice compared with conjugate 2 [4] | 24-h urea nitrogen after administration, compared with the model group [5] | 24-h urine creatinine after administration, compared with the model group [5] | 24-h urine protein after administration, compared with the model group [5] | 24-h urine volume after administration, compared with the model group [5] | efficacy compared with the original protein group ([5]; conjugate 3 once every 2 weeks versus original protein once a week) | activity after standing for 20 min at 65° C. ([6]; 1 mg/mL in PBS, 65° C., 20 min) | thermostability in comparison with the original protein [6] | activity after standing for 10 min at 65° C. ([6]; 1 mg/mL in PBS, 65° C., 10 min)
Y-PALD-30K-KLK1 [Conjugate 3] | 113.62 | 0.33 | 0.64 | 20.03 | 90 | apparent protective effects; also recorded: better therapeutic effect | 17.16 ± 4.07 | 2.10 ± 0.23 | much lower | slightly lower | significantly reduced | significantly reduced | significantly reduced | significantly reduced | apparently superior | still has a certain activity | significantly increased | 
Kallikrein | 18.59 | 2.17 | 3.53 | 18.81 |  | no apparent amelioration | 26.52 ± 3.67 | 2.41 ± 0.19 |  |  | significantly reduced | significantly reduced | significantly reduced | significantly reduced |  |  |  | substantially lost
Y-PALD-30K-hK1K1 |  |  |  |  | 85 |  |  |  |  |  |  |  |  |  |  |  |  | 
Y-PALD-30K-rhK1K1 |  |  |  |  | 88 |  |  |  |  |  |  |  |  |  |  |  |  | 
SC-PEG5000-KLK1 [Conjugate 1, reference compound] |  |  |  |  | 81 | only partially ameliorated; also recorded: slightly ameliorate | 27.67 ± 4.34 | 2.45 ± 0.27 |  |  |  |  |  |  |  |  | unobvious | 
Y-PALD-40K-KLK1 [Conjugate 4] |  |  |  |  | 86 | essentially did not reduce; also recorded: no apparent amelioration | 31.27 ± 5.08 | 2.65 ± 0.34 |  |  |  |  |  |  |  |  |  | 
Positive control 1: urinary kallikrein sourced from human urine, Guangdong Tianpu Biochemical Pharmaceutical [reference compound] | 11.68 | 3.5 | 5.16 | 17.49 |  |  | 24.49 ± 3.96 | 2.47 ± 0.21 |  |  |  |  |  |  |  |  |  | 
Y-PALD-20K-KLK1 [Conjugate 2] |  |  |  |  | 83 | apparent protective effects; also recorded: better therapeutic effect | 21.34 ± 1.70 | 2.27 ± 0.24 | much lower |  |  |  |  |  |  |  |  | 
